Test results taken from patent US20200325178A1, “PEPTIDE NUCLEIC ACID MOLECULES FOR TREATMENT OF GRAM POSITIVE BACTERIAL INFECTION” (priority 2017, published 2020).

Key:
[1] = Single ascending intravenous dose tolerability (MTD) in mice; assay type: in vivo; details: 10 mg/kg single intravenous bolus dose
Procedure: Single ascending intravenous (IV) dose study was performed to determine tolerability of the drug in mice.
Initially, Compound I-HCl and Compound IV-HCl were administered with a 10 mg/kg intravenous bolus dose using a 10 mL/kg dose volume (0.2 mL) and observed the effects before proceeding to the next higher dose. […] However, higher concentration (>15 mg/kg) had shown adverse effect and death in mice within 30 mins of administration of the drug.

MSSA = experiment: In vitro assay of emergence of resistance, MSSA, 8 days; assay type: cell-based, S. aureus; details: 6.25 μg (twice MBC) in one ml Mueller Hinton broth, 37° C., through Day 8
Procedure: (§1) To determine the development of resistance in MRSA and MSSA strains against Compound I-HCl and Compound IV-HCl, an in vitro assay was performed. Twice the amount of MBC of Compound I-HCl (6.25 μg) and Compound IV-HCl (6.25 μg) were mixed with ˜5.0 log 10 CFUs in one ml of Mueller Hinton broth and incubated for 8 days at 37° C. Eight tubes of culture were used for each drug and bacterial strains. At 24 hours of interval, culture tubes were centrifuged and spent media were replaced with fresh media in presence of Compound I-HCl and Compound IV-HCl and further incubated to observe the growth of S. aureus strains. At 24 hours interval, one set of culture tube exposed to drugs were selected and a fraction of the culture used to plate on agar plates to observe the reduction of CFU counts as compared to untreated control. The rest of the culture samples were allowed to grow without any drug for additional 24 hours to observe the growth of S. aureus strains. One set of culture tubes without drug was used as the positive control.
The assays above were also performed using MSSA strains and Compounds I and IV.

MRSA = experiment: In vitro assay of emergence of resistance, MRSA, 8 days; assay type: cell-based, S. aureus; details: 6.25 μg (twice MBC) in one ml Mueller Hinton broth, 37° C., through Day 8
Procedure: as §1

[2] = test system: MRSA clinical isolates and ATCC strains; experiment: MIC and MBC against MRSA clinical isolates and ATCC strains; assay type: cell-based, Staphylococcus aureus; design: unit not given here
Procedure: Bioscreen-C instrument was used to detect the MIC and MBC of PNA-CPP derivatives against S. aureus MRSA strains. Different concentration of PNA-CPP derivatives were prepared in 10 mM of sodium bicarbonate buffer pH-7.4 and added to ˜5.0 Log 10 CFUs in a Honey comb Bioscreen-C plate.
After the growth curve assays, the number of colony forming units (CFU) were counted to determine the MIC and MBC of each PNA-CPP derivative against MRSA.
Minimum inhibitory concentration (MIC) analyses were performed as described in Clinical and Laboratory Standards Institute, Methods for Dilution Antimicrobial Susceptibility Tests for Bacteria that Grow Aerobically, 7th ed.; Approved Standard M7-A7; CLSI: Wayne, Pa., USA, 2006; volume 26, No. 2. […] MIC was determined as the lowest concentration of agent that inhibits bacterial growth detected at A420-580 nm.

[3] = test system: S. aureus (ATCC BAA-1556); experiment: Murine thigh infection model; assay type: in vivo; details: for Mean Log 10 CFU/Thigh / Mean Log 10 Change vs. 1 hr / Mean Log 10 Change vs. 24 hr (vehicle): neutropenic CD-1 mice, 10 mg/kg, 0.2 ml IV, 24 hrs
Procedure: Female 5-6 week old CD-1 (18-22 gm) were used in this study. Mice were quarantined for 48 hours before use and housed in groups of 5 with free access to food and water during the study.
The animals were made neutropenic by administration of cyclophosphamide on Days −4 and −1. On Days −4 150 mg/kg of cyclohsphamide administered by intraperitoneal route and 100 mg/kg was administered on Days −1. Days listed are referenced from the date of infection (study day-Day 0).
On Day 0, animals were inoculated intramuscularly (0.1 ml/thigh) with ˜1×10^5 CFU/mouse of S. aureus (ATCC BAA-1556) into right thigh. […] Group-3 of mice were administered with vancomycin at 25 mg/kg via subcutaneous route. Group-4 of mice administered with buffer and group-5 used as the inoculation control.
Mice were euthanized by CO2 inhalation and thighs were removed, and placed in 2 ml of sterile PBS, homogenized, serially diluted and plated to determine the CFU counts. Plates were incubated 18-24 hours and CFUs were counted.
Colony were counted and the number of colonies is converted to CFU/thigh by multiplying the number of colonies by the volume of the thigh homogenate spotted and the dilution at which the colonies were counted (5-50 colonies/spot). All count data were transformed into logo CFU/thigh for calculation of means and standard deviations.

Q: For “Compound I: PNA-CPP conjugate: PNA cgt cat acg cgg tcc (SEQ ID NO: 51), AEEA linker, CPP BXRXRRXRRXRRXR; FIG. 1 (CGTCATACGCGGTCC; all peptide nucleic acid (PNA); cell-penetrating peptide attached via AEEA linker, further chemistry not fully specified)”, which tolerability in mice [1] is on record?
A: Its tolerability in mice is “well tolerated”.

Q: What about the “MSSA CFU counts and emergence of resistant strains” value (MSSA) of the same substance?
A: The value was “reduced MSSA CFUs without emergence of resistant strains”.

Q: What about the “MRSA CFU counts and emergence of resistant strains” value (MRSA) of the same substance?
A: The value was “reduced MRSA CFUs without emergence of resistant strains”.

Q: What about the MBC ([2]; isolate MRSA#1) of the same substance?
A: Its MBC is 1.56.

Q: What about the MIC ([2]; isolate MRSA#1) of the same substance?
A: Its MIC is 0.78.

Q: And the MBC ([2]; isolate MRSA#3)?
A: Its MBC is 3.25.

Q: What about the MIC ([2]; isolate MRSA#3) of the same substance?
A: The MIC was 1.56.

Q: What about the MBC ([2]; isolate MRSA#6) of the same substance?
A: Its MBC is 1.56/1.56.

Q: And the MIC ([2]; isolate MRSA#6)?
A: Its MIC is 1.56/1.56.

Q: And the MBC ([2]; isolate MRSA#15)?
A: The MBC was 3.25/3.25.

Q: What about the MIC ([2]; isolate MRSA#15) of the same substance?
A: The MIC was 3.25/3.25.

Q: And the MBC ([2]; isolate MRSA#28)?
A: Its MBC is 3.25/3.25.

Q: What about the MIC ([2]; isolate MRSA#28) of the same substance?
A: Its MIC is 3.25/3.25.

Q: And the MBC ([2]; isolate MRSA#31)?
A: Its MBC is 3.25/3.25.

Q: And the MIC ([2]; isolate MRSA#31)?
A: Its MIC is 3.25/3.25.

Q: And the MBC ([2]; isolate MRSA#37)?
A: Its MBC is 3.25.

Q: What about the MIC ([2]; isolate MRSA#37) of the same substance?
A: Its MIC is 1.56.

Q: And the MBC ([2]; isolate MRSA#39)?
A: The MBC was 3.25/3.25.

Q: And the MIC ([2]; isolate MRSA#39)?
A: Its MIC is 3.25/3.25.

Q: What about the MBC ([2]; isolate MRSA#42) of the same substance?
A: Its MBC is 1.56/1.56.

Q: What about the MIC ([2]; isolate MRSA#42) of the same substance?
A: The MIC was 1.56/1.56.

Q: And the MBC ([2]; isolate MRSA#43)?
A: The MBC was 3.25.

Q: And the MIC ([2]; isolate MRSA#43)?
A: Its MIC is 1.56.

Q: And the MBC ([2]; strain USA 300)?
A: The MBC was 3.25.

Q: What about the MIC ([2]; strain USA 300) of the same substance?
A: The MIC was 1.56.

Q: And the “reduction in CFU counts compared to Vancomycin positive control treatment” value ([3]; administered at 1 and 13 hours or at 1, 9, and 17 hours)?
A: The value was “comparable or improved reduction in CFU counts”.

Q: What about the “Mean Log 10 CFU/Thigh” value ([3]; +1 & 13 hrs) of the same substance?
A: Its value is 4.46 Log 10 CFU/Thigh.

Q: What about the “Mean Log 10 Change vs. 1 hr” value ([3]; +1 & 13 hrs) of the same substance?
A: Its value is −1.16 Log 10.

Q: What about the “Mean Log 10 Change vs. 24 hr (vehicle)” value ([3]; +1 & 13 hrs) of the same substance?
A: Its value is −4.07 Log 10.

Q: What about the “Mean Log 10 CFU/Thigh” value ([3]; +1, +9, & +17 hrs) of the same substance?
A: Its value is 3.46 Log 10 CFU/Thigh.

Q: What about the “Mean Log 10 Change vs. 1 hr” value ([3]; +1, +9, & +17 hrs) of the same substance?
A: Its value is −2.16 Log 10.

Q: And the “Mean Log 10 Change vs. 24 hr (vehicle)” value ([3]; +1, +9, & +17 hrs)?
A: The value was −5.07 Log 10.
